Columns and labels:
[1] = target: Casein kinase I isoform gamma-1 (Homo sapiens, UniProt Q9HCP0); test: Inhibition of CSNK1G1
[2] = target: BMP-2-inducible protein kinase (Homo sapiens, UniProt Q9NSY1); test: Inhibition of BMP2K
[3] = target: Receptor-interacting serine/threonine-protein kinase 2 (Homo sapiens, UniProt O43353); test: Inhibition of RIPK2
[4] = target: Dual specificity mitogen-activated protein kinase kinase 1 (Homo sapiens, UniProt Q02750); test: Inhibition of MAP2K1
[5] = target: Inhibitor of nuclear factor kappa-B kinase subunit epsilon (Homo sapiens, UniProt Q14164); test: Inhibition of IKBKE
[6] = Half life in rat […] at 5 mg/kg, po; 1 mg/kg, iv; format: ADME, organism-based
[7] = target: Phosphatidylinositol 4-kinase beta (Homo sapiens, UniProt Q9UBF8); test: Inhibition of PIK4Cb
Mus musculus [8] = test: Antiarthritic activity against collagen-induced arthritis mouse model assessed as inhibition of disease progression at 3 mg/kg, po BID for 14 days; format: functional; settings: 336 h
[9] = target: Maternal embryonic leucine zipper kinase (Homo sapiens, UniProt Q14680); test: Inhibition of MELK
[10] = target: Mitogen-activated protein kinase kinase kinase kinase 2 (Homo sapiens, UniProt Q12851); test: Inhibition of MAP4K2
[11] = target: Serine/threonine-protein kinase TAO2 (Homo sapiens, UniProt Q9UL54); test: Inhibition of TAOK2
[12] = target: Serine/threonine-protein kinase ULK3 (Homo sapiens, UniProt Q6PHR2); test: Inhibition of ULK3
Ephrin type-A receptor 2 = Ephrin type-A receptor 2 (Homo sapiens, UniProt P29317); test: Inhibition of EPHA2
[13] = target: Serine/threonine-protein kinase 3 (Homo sapiens, UniProt Q13188); test: Inhibition of STK3
[14] = target: Hepatocyte growth factor receptor (Homo sapiens, UniProt P08581); test: Inhibition of MET
[15] = target: Protein-tyrosine kinase 6 (Homo sapiens, UniProt Q13882); test: Inhibition of PTK6
[16] = target: Calcium/calmodulin-dependent protein kinase kinase 2 (Homo sapiens, UniProt Q96RR4); test: Inhibition of CAMKK2
[17] = target: Mitogen-activated protein kinase 11 (Homo sapiens, UniProt Q15759); test: Inhibition of MAPK11
[18] = target: Tyrosine-protein kinase ABL2 (Homo sapiens, UniProt P42684); test: Inhibition of ABL2
Mus musculus [19] = test: Antiarthritic activity against collagen-induced arthritis mouse model assessed as mean clinical arthritis score with AUC calculation in at 3 mg/kg, po BID for 14 days; format: functional
Ephrin type-B receptor 2 = Ephrin type-B receptor 2 (Homo sapiens, UniProt P29323); test: Inhibition of EPHB2
[20] = target: Tyrosine-protein kinase SYK (Homo sapiens, UniProt P43405); test: Inhibition of SYK
[21] = target: Serine/threonine-protein kinase Nek9 (Homo sapiens, UniProt Q8TD19); test: Inhibition of NEK9
[22] = target: Tyrosine-protein kinase Tec (Homo sapiens, UniProt P42680); test: Inhibition of TEC
[23] = target: Cyclin-dependent kinase 5 (Homo sapiens, UniProt Q00535); test: Inhibition of CDK5
[24] = target: Dual specificity testis-specific protein kinase 1 (Homo sapiens, UniProt Q15569); test: Inhibition of TESK1
[25] = target: Tyrosine-protein kinase ITK/TSK (Homo sapiens, UniProt Q08881); test: Inhibition of ITK
TGF-beta receptor type-1 = TGF-beta receptor type-1 (Homo sapiens, UniProt P36897); test: Inhibition of TGFBR1
[26] = target: T1, Phosphatidylinositol 4,5-bisphosphate 3-kinase catalytic subunit delta isoform (Homo sapiens, UniProt O00329); test: Inhibition of PIK3Cd
T1 sequence (O00329 whole entry): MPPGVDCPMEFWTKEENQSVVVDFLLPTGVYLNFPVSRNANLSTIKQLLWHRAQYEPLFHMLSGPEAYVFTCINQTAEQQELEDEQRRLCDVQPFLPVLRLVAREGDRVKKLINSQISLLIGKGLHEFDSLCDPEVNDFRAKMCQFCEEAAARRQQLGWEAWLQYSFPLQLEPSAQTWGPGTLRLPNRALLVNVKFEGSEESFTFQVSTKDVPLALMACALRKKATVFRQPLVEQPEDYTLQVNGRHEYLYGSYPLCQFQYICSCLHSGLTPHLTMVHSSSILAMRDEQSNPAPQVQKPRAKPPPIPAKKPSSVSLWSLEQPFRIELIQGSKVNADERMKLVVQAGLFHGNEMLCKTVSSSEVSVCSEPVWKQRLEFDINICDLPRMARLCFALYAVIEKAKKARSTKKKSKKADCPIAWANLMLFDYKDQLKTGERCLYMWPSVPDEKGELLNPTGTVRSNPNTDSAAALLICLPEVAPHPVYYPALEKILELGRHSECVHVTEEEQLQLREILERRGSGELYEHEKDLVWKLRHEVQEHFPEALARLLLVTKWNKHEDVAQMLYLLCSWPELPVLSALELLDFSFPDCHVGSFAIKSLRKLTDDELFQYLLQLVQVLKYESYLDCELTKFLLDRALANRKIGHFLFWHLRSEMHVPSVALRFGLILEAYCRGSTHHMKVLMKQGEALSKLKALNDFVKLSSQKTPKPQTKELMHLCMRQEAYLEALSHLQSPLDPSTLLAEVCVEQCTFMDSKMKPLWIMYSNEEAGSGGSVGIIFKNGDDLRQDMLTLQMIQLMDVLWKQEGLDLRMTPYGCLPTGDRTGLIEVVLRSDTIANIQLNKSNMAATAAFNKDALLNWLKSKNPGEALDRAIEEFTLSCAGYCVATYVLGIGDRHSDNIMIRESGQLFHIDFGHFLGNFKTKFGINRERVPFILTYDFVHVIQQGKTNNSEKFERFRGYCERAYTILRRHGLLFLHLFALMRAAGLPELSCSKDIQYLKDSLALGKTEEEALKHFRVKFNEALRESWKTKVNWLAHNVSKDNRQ

[27] = target: Mitogen-activated protein kinase 1 (Homo sapiens, UniProt P28482); test: Inhibition of MAPK1
[28] = target: Tyrosine-protein kinase Fyn (Homo sapiens, UniProt P06241); test: Inhibition of FYN
[29] = target: Protein kinase C delta type (Homo sapiens, UniProt Q05655); test: Inhibition of PRKCD
Cytochrome P450 2C19 = Cytochrome P450 2C19 (Homo sapiens, UniProt P33261); test: Inhibition of CYP2C19 at >20 uM; format: ADME
[30] = Oral bioavailability in cynomolgus monkey; format: ADME, organism-based, Macaca fascicularis; settings: in vivo
[31] = target: Mitogen-activated protein kinase kinase kinase 11 (Homo sapiens, UniProt Q16584); test: Inhibition of MAP3K11
[32] = target: Phosphatidylinositol 4,5-bisphosphate 3-kinase catalytic subunit gamma isoform (Homo sapiens, UniProt P48736); test: Inhibition of PI3Kgamma by kinobeads assay
Activin receptor type-2B = Activin receptor type-2B (Homo sapiens, UniProt Q13705); test: Inhibition of ACVR2B

Chain of Protein kinase C delta type (Q05655 whole entry): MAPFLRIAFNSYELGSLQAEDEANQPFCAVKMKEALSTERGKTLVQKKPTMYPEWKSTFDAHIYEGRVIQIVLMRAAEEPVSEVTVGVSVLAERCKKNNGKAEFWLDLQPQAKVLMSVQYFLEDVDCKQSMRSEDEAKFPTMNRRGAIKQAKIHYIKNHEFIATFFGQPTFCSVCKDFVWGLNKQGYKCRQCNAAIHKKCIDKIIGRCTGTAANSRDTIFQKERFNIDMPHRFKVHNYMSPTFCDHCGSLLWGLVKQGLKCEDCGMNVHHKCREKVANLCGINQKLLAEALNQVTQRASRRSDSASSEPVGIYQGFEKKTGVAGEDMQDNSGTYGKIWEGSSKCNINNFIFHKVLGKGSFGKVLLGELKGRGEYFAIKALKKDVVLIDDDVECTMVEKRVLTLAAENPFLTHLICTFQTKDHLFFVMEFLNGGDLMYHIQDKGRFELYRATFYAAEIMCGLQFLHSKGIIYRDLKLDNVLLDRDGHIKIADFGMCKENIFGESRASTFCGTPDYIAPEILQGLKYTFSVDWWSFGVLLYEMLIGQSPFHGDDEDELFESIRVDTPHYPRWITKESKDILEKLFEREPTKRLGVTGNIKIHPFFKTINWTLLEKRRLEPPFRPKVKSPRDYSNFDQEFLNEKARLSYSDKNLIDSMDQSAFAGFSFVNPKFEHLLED
Chain of Tyrosine-protein kinase Tec (P42680 whole entry): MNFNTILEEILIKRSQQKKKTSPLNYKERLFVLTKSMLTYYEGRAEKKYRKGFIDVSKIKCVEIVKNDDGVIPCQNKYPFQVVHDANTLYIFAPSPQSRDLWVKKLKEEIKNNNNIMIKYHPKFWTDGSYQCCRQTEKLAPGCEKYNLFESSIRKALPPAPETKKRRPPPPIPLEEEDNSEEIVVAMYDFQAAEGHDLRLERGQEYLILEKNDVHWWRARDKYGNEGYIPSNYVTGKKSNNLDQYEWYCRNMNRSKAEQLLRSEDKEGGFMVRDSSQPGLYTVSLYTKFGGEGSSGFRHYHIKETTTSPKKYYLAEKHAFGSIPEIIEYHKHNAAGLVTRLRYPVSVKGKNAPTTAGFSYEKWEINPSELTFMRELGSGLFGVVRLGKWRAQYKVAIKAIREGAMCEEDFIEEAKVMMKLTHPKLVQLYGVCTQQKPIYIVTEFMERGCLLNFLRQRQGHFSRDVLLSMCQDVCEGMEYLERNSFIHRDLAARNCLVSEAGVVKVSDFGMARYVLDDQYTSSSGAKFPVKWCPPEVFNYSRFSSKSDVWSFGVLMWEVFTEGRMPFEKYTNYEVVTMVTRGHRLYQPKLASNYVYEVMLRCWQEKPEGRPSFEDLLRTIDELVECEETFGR
Chain of Mitogen-activated protein kinase 1 (P28482 whole entry): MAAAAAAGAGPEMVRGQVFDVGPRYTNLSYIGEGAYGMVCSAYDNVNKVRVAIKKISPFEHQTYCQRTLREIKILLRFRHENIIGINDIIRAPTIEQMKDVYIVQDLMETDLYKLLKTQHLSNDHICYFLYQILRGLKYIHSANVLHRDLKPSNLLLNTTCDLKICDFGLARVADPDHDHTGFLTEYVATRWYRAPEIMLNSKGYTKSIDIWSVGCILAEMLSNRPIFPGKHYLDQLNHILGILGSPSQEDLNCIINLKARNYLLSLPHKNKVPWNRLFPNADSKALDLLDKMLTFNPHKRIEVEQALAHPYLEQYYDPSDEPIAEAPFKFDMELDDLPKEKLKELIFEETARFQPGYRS
Chain of Dual specificity testis-specific protein kinase 1 (Q15569 whole entry): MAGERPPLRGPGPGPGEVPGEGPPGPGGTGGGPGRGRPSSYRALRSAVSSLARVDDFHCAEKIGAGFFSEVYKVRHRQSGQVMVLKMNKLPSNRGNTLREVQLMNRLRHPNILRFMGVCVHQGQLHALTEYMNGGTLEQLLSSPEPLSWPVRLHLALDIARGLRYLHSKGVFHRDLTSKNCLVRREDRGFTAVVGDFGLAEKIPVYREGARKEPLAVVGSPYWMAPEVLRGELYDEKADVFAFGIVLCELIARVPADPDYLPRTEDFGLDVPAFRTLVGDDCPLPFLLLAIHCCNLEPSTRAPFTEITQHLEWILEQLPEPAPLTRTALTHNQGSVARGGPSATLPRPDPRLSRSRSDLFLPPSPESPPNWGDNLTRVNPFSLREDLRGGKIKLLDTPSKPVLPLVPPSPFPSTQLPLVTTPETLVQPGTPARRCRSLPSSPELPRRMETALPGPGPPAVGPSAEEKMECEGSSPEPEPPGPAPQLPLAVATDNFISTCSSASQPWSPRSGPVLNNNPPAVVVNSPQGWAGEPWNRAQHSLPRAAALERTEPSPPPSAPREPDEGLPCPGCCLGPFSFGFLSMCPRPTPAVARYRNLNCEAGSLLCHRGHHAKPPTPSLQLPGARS
Chain of Maternal embryonic leucine zipper kinase (Q14680 whole entry): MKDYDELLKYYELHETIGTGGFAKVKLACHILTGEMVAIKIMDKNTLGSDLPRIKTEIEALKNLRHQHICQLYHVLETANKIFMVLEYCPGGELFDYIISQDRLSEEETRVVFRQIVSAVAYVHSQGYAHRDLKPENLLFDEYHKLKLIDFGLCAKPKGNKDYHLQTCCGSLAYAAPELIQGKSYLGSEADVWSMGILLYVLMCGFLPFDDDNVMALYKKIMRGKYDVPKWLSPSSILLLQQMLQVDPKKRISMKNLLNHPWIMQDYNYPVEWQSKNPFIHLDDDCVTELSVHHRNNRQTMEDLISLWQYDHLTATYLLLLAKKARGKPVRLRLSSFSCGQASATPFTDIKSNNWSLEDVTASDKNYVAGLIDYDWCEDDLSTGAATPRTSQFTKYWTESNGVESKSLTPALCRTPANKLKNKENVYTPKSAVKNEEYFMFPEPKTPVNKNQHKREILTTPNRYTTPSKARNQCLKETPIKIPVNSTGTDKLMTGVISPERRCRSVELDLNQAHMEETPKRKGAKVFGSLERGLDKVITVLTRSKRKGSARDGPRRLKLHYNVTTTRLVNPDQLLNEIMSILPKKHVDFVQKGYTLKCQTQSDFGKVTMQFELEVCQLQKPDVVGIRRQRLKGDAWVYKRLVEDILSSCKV
Chain of Receptor-interacting serine/threonine-protein kinase 2 (O43353 whole entry): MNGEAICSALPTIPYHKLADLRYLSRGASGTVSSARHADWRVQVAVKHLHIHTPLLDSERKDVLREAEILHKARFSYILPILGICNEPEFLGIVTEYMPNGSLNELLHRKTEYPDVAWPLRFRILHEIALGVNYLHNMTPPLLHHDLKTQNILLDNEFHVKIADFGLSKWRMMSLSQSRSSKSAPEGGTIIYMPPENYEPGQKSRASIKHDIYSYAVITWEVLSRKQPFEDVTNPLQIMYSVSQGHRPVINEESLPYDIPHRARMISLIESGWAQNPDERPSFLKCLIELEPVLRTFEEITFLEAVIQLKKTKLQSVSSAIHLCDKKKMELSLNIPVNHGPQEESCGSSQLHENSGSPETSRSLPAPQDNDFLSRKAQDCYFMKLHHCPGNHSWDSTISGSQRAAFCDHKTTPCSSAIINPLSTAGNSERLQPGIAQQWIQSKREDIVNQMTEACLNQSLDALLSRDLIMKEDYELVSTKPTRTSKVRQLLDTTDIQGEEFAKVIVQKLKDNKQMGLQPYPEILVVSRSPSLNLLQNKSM
Chain of Tyrosine-protein kinase ITK/TSK (Q08881 whole entry): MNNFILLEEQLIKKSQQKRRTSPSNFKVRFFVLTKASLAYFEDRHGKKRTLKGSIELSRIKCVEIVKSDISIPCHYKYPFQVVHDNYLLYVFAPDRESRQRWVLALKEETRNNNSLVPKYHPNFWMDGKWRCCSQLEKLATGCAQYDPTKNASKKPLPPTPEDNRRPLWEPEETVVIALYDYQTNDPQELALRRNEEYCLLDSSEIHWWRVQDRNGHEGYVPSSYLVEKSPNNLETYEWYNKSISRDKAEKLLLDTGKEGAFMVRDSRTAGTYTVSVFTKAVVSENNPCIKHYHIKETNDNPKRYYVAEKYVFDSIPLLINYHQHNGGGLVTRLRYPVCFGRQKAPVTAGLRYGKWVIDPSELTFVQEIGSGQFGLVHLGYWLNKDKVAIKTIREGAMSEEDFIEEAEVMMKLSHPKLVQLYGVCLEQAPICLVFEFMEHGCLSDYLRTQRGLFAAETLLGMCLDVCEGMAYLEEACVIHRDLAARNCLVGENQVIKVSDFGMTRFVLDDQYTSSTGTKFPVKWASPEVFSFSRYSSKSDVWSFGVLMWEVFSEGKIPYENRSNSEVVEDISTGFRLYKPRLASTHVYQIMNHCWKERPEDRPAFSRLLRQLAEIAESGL
Chain of Dual specificity mitogen-activated protein kinase kinase 1 (Q02750 whole entry): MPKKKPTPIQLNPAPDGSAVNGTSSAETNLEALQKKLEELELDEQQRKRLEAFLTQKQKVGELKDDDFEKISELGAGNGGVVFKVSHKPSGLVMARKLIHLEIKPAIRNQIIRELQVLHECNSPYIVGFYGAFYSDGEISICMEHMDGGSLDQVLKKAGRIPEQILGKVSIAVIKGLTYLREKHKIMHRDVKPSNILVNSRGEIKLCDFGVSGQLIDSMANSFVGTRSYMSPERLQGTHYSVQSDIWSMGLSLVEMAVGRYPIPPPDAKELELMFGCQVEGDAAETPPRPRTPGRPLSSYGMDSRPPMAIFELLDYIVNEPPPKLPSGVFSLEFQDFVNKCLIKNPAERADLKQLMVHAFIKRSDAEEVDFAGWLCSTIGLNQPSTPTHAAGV
Chain of TGF-beta receptor type-1 (P36897 whole entry, canonical isoform): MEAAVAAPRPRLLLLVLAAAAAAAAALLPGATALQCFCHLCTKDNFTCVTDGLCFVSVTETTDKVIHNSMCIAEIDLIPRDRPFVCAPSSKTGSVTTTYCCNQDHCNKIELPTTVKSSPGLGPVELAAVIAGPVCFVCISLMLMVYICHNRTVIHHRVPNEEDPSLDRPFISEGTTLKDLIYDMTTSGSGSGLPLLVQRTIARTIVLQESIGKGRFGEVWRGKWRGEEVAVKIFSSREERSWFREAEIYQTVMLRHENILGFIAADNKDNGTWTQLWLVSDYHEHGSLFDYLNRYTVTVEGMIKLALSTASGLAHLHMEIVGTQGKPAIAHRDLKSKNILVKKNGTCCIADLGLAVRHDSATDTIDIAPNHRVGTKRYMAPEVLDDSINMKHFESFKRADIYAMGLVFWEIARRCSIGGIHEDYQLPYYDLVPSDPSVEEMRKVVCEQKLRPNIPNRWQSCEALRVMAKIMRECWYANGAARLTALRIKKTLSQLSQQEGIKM

SMILES: CC(C)(C)NS(=O)(=O)c1cncc(-c2ccn3nc(N)nc3c2)c1
- IC50 [1]: 9.55 µM
- IC50 [2]: > 10 µM
- IC50 [3]: > 10 µM
- IC50 [4]: > 10 µM
- IC50 [5]: > 10 µM
- half-life [6]: 1.2 h
- IC50 [7]: > 10 µM
- inhibition in vivo at 3 mg/kg (Mus musculus [8]): 41%
- IC50 [9]: > 10 µM
- IC50 [10]: > 10 µM
- IC50 [11]: > 10 µM
- IC50 [12]: > 10 µM
- IC50 (Ephrin type-A receptor 2): > 10 µM
- IC50 [13]: > 10 µM
- IC50 [14]: > 10 µM
- IC50 [15]: > 10 µM
- IC50 [16]: > 10 µM
- IC50 [17]: > 10 µM
- IC50 [18]: > 10 µM
- Activity (Mus musculus [19]): 30%
- IC50 (Ephrin type-B receptor 2): > 10 µM
- IC50 [20]: > 10 µM
- IC50 [21]: > 10 µM
- IC50 [22]: > 10 µM
- IC50 [23]: > 10 µM
- IC50 [24]: > 10 µM
- IC50 [25]: > 10 µM
- IC50 (TGF-beta receptor type-1): > 10 µM
- IC50 [26]: 0.708 µM
- IC50 [27]: > 10 µM
- IC50 [28]: > 10 µM
- IC50 [29]: > 10 µM
- inhibition (INH) (Cytochrome P450 2C19): Active
- bioavailability [30]: 88%
- IC50 [31]: > 10 µM
- IC50 [32]: 0.0126 µM
- IC50 (Activin receptor type-2B): > 10 µM

Source: ChEMBL document CHEMBL2203257 (Bioorg Med Chem Lett, 2012)
